Measurements: patent US20080132520A1, “COMPOSITIONS, KITS AND METHODS FOR ADMINISTERING A TITRATION SCHEDULE COMPRISING BIFEPRUNOX COMPOUNDS” (priority 2006, published 2008)

Legend:
[1] = Clinical investigations on bifeprunox mesylate: tolerability; conditions: human, in vivo
[2] = Randomized, double-blinded, placebo-controlled, sequential panel, rapid titration study: safety and tolerability; assay type: in vivo, human
Procedure: This study represented a randomized, double-blinded, placebo-controlled, sequential panel, rapid titration study of the safety and tolerability of bifeprunox compounds in subjects with schizophrenia. In particular, this study assessed the safety, tolerability and efficacy after a rapid titration of bifeprunox to a therapeutic dose of 40 mg/day in schizophrenia and schizoaffective subjects. Eligible subjects were hospitalized at the start of the screening period and entered a single-blind placebo run-in period (day -7 to -1) to assure that the 7-day antipsychotic drug-free criterion was met prior to bifeprunox titration. Subjects then began rapid titration at an initial bifeprunox starting dose of 0.25 mg with a high proposed therapeutic dose of 40 mg/day. Two titration schedules were evaluated in sequential order, with the titration period lasting 6 to 7 days depending on the titration schedule (Day 1 to Day 6 or 7).
Each listed dose in the titration schedule was administered once daily (QD) followed by the next higher dose the following day. […] Only one repeat dose, however, was allowed during the entire titration period. Upon reaching the high proposed dose of 40 mg/day, the subject entered a 3-day maintenance period for this dose. Final assessments were performed on the day after the last maintenance period dose and follow-up assessments were performed 3 days after the last dose of study treatment.
Efficacy assessments (i.e., Positive and Negative Symptoms of Schizophrenia (PANSS) and Clinical Global Impression-Severity (CGI-S) were performed at screening, Day-1 and at the final assessment; Clinical Global Impressions-improvement (CGI-I was performed at the final assessment only. Safety was monitored throughout the study by assessment of physical examination, vital signs, adverse events (AEs), concomitant medications, clinical laboratory assessments, 12-lead electrocardiograms (ECGs), Simpson-Angus Scale (SAS) score and Barnes Akathisia Scale (BAS) score. The treatment phase lasted approximately two weeks, including follow-up assessment. Subjects remained hospitalized until the post-treatment follow-up assessment was completed or until their condition had clinically stabilized.
The study planned to include 20 subjects (10 subjects per panel). Twenty-seven subjects were screened and 18 were randomized (7 to bifeprunox and 1 to placebo in titration schedule 1 and 8 to bifeprunox and 2 to placebo titration schedule 2c). Ten subjects per panel were initially available as planned. Two subjects, however, dropped out of the first panel before the start of the study. As such, the study proceeded with the eighteen subjects.
Males and females between 18-55 years old meeting Diagnostic and Statistical Manual of Mental Disorders, 4th edition, Text Revised (DSM-IV TR) diagnosis of Schizophrenia disorder (295.10, 295.20, 295.30, 295.60 and 295.90) or Schizoaffevtive disorder (295.70).
Bifeprunox were tablets taken orally at a total daily dose of 0.25 mg to 40 mg in the following titration schedules:
Placebo tablets matching the bifeprunox tablets were taken orally using the same dosing regimen as the test product.

[3] = Rapid titration study: efficacy assessments (PANSS, CGI-S, CGI-I); assay type: in vivo, human; conditions: short treatment period, titration to 40 mg/day plus 3-day maintenance
Procedure: This study represented a randomized, double-blinded, placebo-controlled, sequential panel, rapid titration study of the safety and tolerability of bifeprunox compounds in subjects with schizophrenia. […] Efficacy assessments (i.e., Positive and Negative Symptoms of Schizophrenia (PANSS) and Clinical Global Impression-Severity (CGI-S) were performed at screening, Day-1 and at the final assessment; Clinical Global Impressions-improvement (CGI-I was performed at the final assessment only. […] The treatment phase lasted approximately two weeks, including follow-up assessment. Subjects remained hospitalized until the post-treatment follow-up assessment was completed or until their condition had clinically stabilized.

dopamine D2/3 receptors = conditions: cited from earlier work
[4] = molecular target: T1, serotonin 5-HT1A receptors (Homo sapiens, UniProt P08908); conditions: cited from earlier work
T1 sequence (P08908 1-422): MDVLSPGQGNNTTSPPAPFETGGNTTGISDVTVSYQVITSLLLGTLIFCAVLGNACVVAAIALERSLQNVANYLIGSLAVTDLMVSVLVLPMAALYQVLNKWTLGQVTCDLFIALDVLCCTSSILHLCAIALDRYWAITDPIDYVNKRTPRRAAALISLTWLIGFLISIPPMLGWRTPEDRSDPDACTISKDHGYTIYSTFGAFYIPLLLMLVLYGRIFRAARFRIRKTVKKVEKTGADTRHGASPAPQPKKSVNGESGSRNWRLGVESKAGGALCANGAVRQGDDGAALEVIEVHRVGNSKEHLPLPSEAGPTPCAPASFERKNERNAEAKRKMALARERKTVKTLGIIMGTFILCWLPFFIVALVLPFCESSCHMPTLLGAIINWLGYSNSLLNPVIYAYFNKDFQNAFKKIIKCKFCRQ

Structure (SMILES): CS(=O)(=O)O.O=c1[nH]c2cccc(N3CCN(Cc4cccc(-c5ccccc5)c4)CC3)c2o1 [bifeprunox mesylate, 7-[4-([1,1′-biphenyl]-3-ylmethyl)-1-piperazinyl]-2(3H)-benzoxazolone monomethane-sulfonate]
- tolerability during clinical investigations [1]: well tolerated

Structure (SMILES): O=c1[nH]c2cccc(N3CCN(Cc4cccc(-c5ccccc5)c4)CC3)c2o1 [bifeprunox, 7-[4-([1,1′-biphenyl]-3-ylmethyl)-1-piperazinyl]-2(3H)-benzoxa-zolone]
- subjects with TEAEs leading to discontinuation of the study treatment ([2]; titration schedule 1): Three subjects
- subjects with at least 1 TEAE related to study treatment ([2]; titration schedule 1): All subjects
- subjects with vital sign abnormalities on the same day as relevant AEs (dizziness or orthostatic hypotension) ([2]; titration schedule 1): Two subjects
- tolerability of daily increases to 20 to 40 mg once the 10 mg dose was reached ([2]; titration schedule 1): well-tolerated
- subjects reporting at least one treatment emergent adverse event (TEAE) ([2]; titration schedule 1 (0.25, 1, 5, 10, 20, 40 mg QD oral over 6 days), 7 subjects on bifeprunox): All subjects
- TEAEs at the 20 mg dose level ([2]; titration schedule 1, 20 mg dose level): No TEAEs occurred
- subjects reporting TEAEs considered to be severe ([2]; titration schedule 1, severe TEAEs at the 1, 5 and 10 dose levels): Three subjects
- TEAEs of anorexia, gait abnormal NOS or orthostatic hypotension ([2]; titration schedule 2c): no TEAEs
- additional subjects requiring re-challenge of a dose level who completed titration up to 40 mg ([2]; titration schedule 2c): Two additional subjects
- subjects with TEAEs related to the study treatment ([2]; titration schedule 2c): Six out of 8
- subjects with vital sign abnormalities same days as AEs of dizziness ([2]; titration schedule 2c): Four subjects
- subjects reporting at least one TEAE ([2]; titration schedule 2c (0.25, 0.5, 2, 5, 10, 20, 40 mg QD oral over 7 days), 8 subjects on bifeprunox): All subjects
- tolerability of titration from 0.25 mg to 40 mg over 7 days versus over a 6-day period ([2]; titration schedule 2c versus 1): better tolerated
- subjects with TEAE leading to discontinuation of the study treatment ([2]; titration schedule 2c, TEAE of dizziness): One subject
- subjects reporting TEAEs considered to be severe ([2]; titration schedule 2c, severe TEAEs at the 2 mg and 5 mg dose level): Three subjects
- effects on BAS, SAS, ECG or clinical laboratory evaluations ([2]; titration schedules 1 and 2c): Neither titration schedule of bifeprunox appeared to have any effects
- benefit over placebo in severity of symptoms of schizophrenia (PANSS total scores, CGI-S and CGI-I scores, responder rate) [3]: little benefit
- functional activity at dopamine D2/3 receptors (dopamine D2/3 receptors): partial agonist
- functional activity at serotonin 5-HT1A receptors [4]: partial agonist
